In patent US20260183303A1, “PDK1 REGULATORY COMPOUND AND COMPOSITION CONTAINING THE SAME” (PROVIBIO CO., LTD., priority 2024, published 2026):

What was measured:
[1] = test system: T cells isolated from mouse spleens; test: T cell proliferation inhibition (CFSE flow cytometry, anti-CD3/anti-CD28 activation); type: cell-based, C57BL/6 mice; conditions: mouse spleen T cells, CD3/CD28 activated, cultured three days
Description: To verify the T cell proliferation inhibitory effect of the compounds according to the present invention, the following experiment was performed based on flow cytometry analysis using carboxyfluorescein diacetate succinimidyl ester (CFSE), a fluorescent dye that binds to intracellular molecules via covalent bonds.
Spleens were extracted from 7-week-old C57BL/6 mice, ground, and then separated into single cells using a strainer ([…], SPL). Red blood cells were removed using ACK (Ammonium-Chloride-Potassium) lysis buffer to isolate white blood cells.
Finally, using a MACS Magnetic Stand and LS column, T cells were isolated from the spleen.
The T cells isolated from the spleen were resuspended in 1 mL of free medium (RPMI-1640+200 U/mL penicillin+200 μg/mL streptomycin), and 0.3 μL of CFSE (10 mM) was added. The mixture was incubated at 37° C. for 5 minutes.
Free medium (10 mL) was added to stop the reaction, and the cells were centrifuged to obtain the cell pellet.
RPMI 1640 medium containing 10% FBS, 100 U/mL penicillin, 100 μg/mL streptomycin, and resuspended the cells. The cells were then seeded into a 96-well plate at a density of 2×10^5 cells per well and activated with CD3 and CD28 antibodies ([…]) to activate T cells.
The compound diluted in DMSO was added at concentrations of 10 nM, 100 nM, 1 μM, […], 30 μM, and 50 µM, with three wells per concentration, and cultured at 37° C. and 5% CO2 for three days. The cells were then analyzed using a FACS Canto instrument.
The proliferation inhibition rate (%) was calculated using the following formula: […]

[2] = test system: Human B Lymphocyte cell line, SU-DHL-8; test: Relative cell viability (CCK-8), SU-DHL-8; type: cell-based; conditions: 48 hours, untreated cells (DMSO) = 100%
Description: Human-derived B lymphoma cell line SU-DHL-8 (Cat. #CRL-2961) purchased from ATCC was cultured in RPMI-1640 medium containing […], 100 U/mL penicillin, and 100 μg/mL streptomycin.
The cell culture medium was then harvested, centrifuged at 1,300 rpm for 5 minutes, and the supernatant was removed. The cells were resuspended in the same medium and dispensed into a 96-well plate (Costar 96-well cell culture plate, Corning) at 90 μL per well, resulting in the conditions specified in Table 5.
Then, 10 μL of CCK-8 was added to each well, and the plates were incubated again at 37° C. in a 5% CO2 incubator for 4 hours.
In other words, when the survival rate of untreated cells (DMSO) is set at 100%, the relative cell survival rate in each group treated with the drug at different concentrations is indicated.

Row | Structure (SMILES) | Proliferation inhibition rate (%) ([1]; 1 μM) | Proliferation inhibition rate (%) ([1]; 10 μM) | Proliferation inhibition rate (%) ([1]; 30 μM) | Proliferation inhibition rate (%) ([1]; 50 μM) | Relative cell viability (%) ([2]; SU-DHL-8, 30 μM) | Relative cell viability (%) ([2]; SU-DHL-8, 50 μM) | Proliferation inhibition rate (%) ([1]; 10 nM) | Proliferation inhibition rate (%) ([1]; 100 nM) | Relative cell viability (%) ([2]; SU-DHL-8, 1 μM) | Relative cell viability (%) ([2]; SU-DHL-8, 10 μM) | Proliferation inhibition rate (%) ([1]; 10 nM, listed as PBK-2024-004, 0.01 µM) | Proliferation inhibition rate (%) ([1]; 100 nM, listed as PBK-2024-004, 0.1 µM) | Proliferation inhibition rate (%) ([1]; 1 μM, listed as PBK-2024-004, 1 µM) | Proliferation inhibition rate (%) ([1]; 10 μM, listed as PBK-2024-004, 10 µM) | Proliferation inhibition rate (%) ([1]; 10 nM, listed as K-PB-48, 0.01 µM)
1 | Nc1ncccc1C(=O)NCCCCCCCCCCCCN1CCS(=O)(=O)CC1 [Compound 25, 2-Amino-N-(12-(1,1-dioxidothiomorpholino)dodecyl) nicotinamide] | 100.00% | 100.00% | 100.00% | 100.00% | 0.11% | 0.95% |  |  |  |  |  |  |  |  | 
2 | COc1ccc(CN2CCN(CCCCCCCCCCCCNC(=O)c3cccnc3N)CC2)cc1 [Compound 28, 2-Amino-N-(12-(4-(4-methoxybenzyl)piperazin-1-yl)dodecyl) nicotinamide] | 100.00% | 100.00% | 100.00% | 100.00% | 0.33% |  | −0.27% | 100.00% | 5.46% | 2.82% |  |  |  |  | 
3 | CC(C)N1CCN(CCCCCCCCCCCCNC(=O)c2cccnc2N)CC1 [Compound 104, 2-Amino-N-(12-(4-isopropylpiperazin-1-yl)dodecyl) nicotinamide] | 100.00% | 100.00% | 100.00% | 100.00% |  |  | 100.00% | 100.00% |  |  |  |  |  |  | 
4 | Nc1ncccc1C(=O)NCCCCCCCCCCCCN1CCc2ccccc2C1 [Compound 17, 2-Amino-N-(12-(3,4-dihydroisoquinolin-2(1H)-yl)dodecyl) nicotinamide] |  |  |  |  |  |  |  |  |  |  | 0.00% | −14.00% | 100.00% | 100.00% | 
5 | C[C@H]1CNCCN1CCCCCCCCCCCCNC(=O)c1cccnc1N.Cl [Compound 37, (S)-2-Amino-N-(12-(2-methylpiperazin-1-yl)dodecyl) nicotinamide hydrochloride] | 100.00% | 100.00% | 100.00% | 100.00% |  |  |  |  |  |  |  |  |  |  | 
6 | Nc1ncccc1C(=O)NCCCCCCCCCCCCN1CCC(O)CC1 [Compound 48, 2-Amino-N-(12-(4-hydroxypiperidin-1-yl)dodecyl) nicotinamide] | 100.00% | 100.00% | 100.00% | 100.00% |  |  |  | 100.00% |  |  |  |  |  |  | 
7 | COC1CCN(CCCCCCCCCCCCNC(=O)c2cccnc2N)C1 (stereo not shown) [Compound 126, 2-amino-N-(12-(3-methoxypyrrolidin-1-yl)dodecyl) nicotinamide] | 100.00% | 100.00% | 100.00% | 100.00% |  |  |  | 100.00% |  |  |  |  |  |  | 0.00%
8 | CC1CN(CCCCCCCCCCCCNC(=O)c2cccnc2N)C(C)CN1.Cl (stereo not shown) [Compound 36, 2-Amino-N-(12-(2,5-dimethylpiperazin-1-yl)dodecyl) nicotinamide hydrochloride] | 100.00% | 100.00% | 100.00% | 100.00% |  |  |  | 100.00% |  |  |  |  |  |  | 
9 | Nc1ncccc1C(=O)NCCCCCCCCCCCCN1CC=CC1 [Compound 129, 2-amino-N-(12-(2,5-dihydro-1H-pyrrol-1-yl)dodecyl) nicotinamide] | 100.00% | 100.00% | 100.00% | 100.00% |  |  | 0.00% | 90.00% |  |  |  |  |  |  | 
10 | CN(CCCCCCCCCCCCNC(=O)c1cccnc1N)C1CCCCC1 [Compound 34, 2-Amino-N-(12-(cyclohexyl(methyl)amino)dodecyl) nicotinamide] | 100.00% | 100.00% | 100.00% | 100.00% |  |  |  | 100.00% |  |  |  |  |  |  | 
11 | Nc1ncccc1C(=O)NCCCCCCCCCCCCN1CCN(C=O)CC1 [Compound 97, 2-amino-N-(12-(4-formylpiperazin-1-yl)dodecyl) nicotinamide] | 100.00% | 100.00% | 100.00% | 100.00% |  |  |  |  |  |  |  |  |  |  | 
12 | COC1CCN(CCCCCCCCCCCCNC(=O)c2cccnc2N)CC1 [Compound 94, 2-amino-N-(12-(4-methoxypiperidin-1-yl)dodecyl) nicotinamide] | 100.00% | 100.00% | 100.00% | 100.00% |  |  |  | 100.00% |  |  |  |  |  |  | 
13 | CN1CCN(CCCCCCCCCCCCNC(=O)c2cccnc2F)CC1 [Compound 121, 2-fluoro-N-(12-(4-methylpiperazin-1-yl)dodecyl) nicotinamide] | 0.00% | 30.00% | 100.00% | 100.00% |  |  | 0.00% | 0.00% |  |  |  |  |  |  | 
14 | Nc1ncccc1C(=O)NCCCCCCCCCCCCn1ccc2c(Cl)c(I)cnc21 [Compound 109, 2-Amino-N-(12-(4-chloro-5-iodo-1H-pyrrolo[2,3-b]pyridin-1-yl)dodecyl) nicotinamide] | 20.91% | 100.00% | 100.00% | 100.00% |  |  | 0.15% | 8.48% |  |  |  |  |  |  | 
15 | CC1CCCN(CCCCCCCCCCCCNC(=O)c2cccnc2N)CC1 (stereo not shown) [Compound 39, 2-Amino-N-(12-(4-methylazepan-1-yl)dodecyl) nicotinamide] | 100.00% | 100.00% | 100.00% | 100.00% |  |  |  | 100.00% |  |  |  |  |  |  | 
16 | Nc1ncccc1C(=O)NCCCCCCCCCCCCNC1CCOC1 (stereo not shown) [Compound 128, 2-amino-N-(12-((tetrahydrofuran-3-yl)amino)dodecyl) nicotinamide] | 100.00% | 100.00% | 100.00% | 100.00% |  |  |  | 100.00% |  |  |  |  |  |  | 
17 | Nc1ncccc1C(=O)NCCCCCCCCCCCCN1CCC2CCCCC2C1 (stereo not shown) [Compound 16, 2-Amino-N-(12-(Octahydroisoquinolin-2(1H)-Yl)Dodecyl) Nicotinamide] | 100.00% | 100.00% | 100.00% | 100.00% |  |  |  |  |  |  |  |  |  |  | 
18 | CC(C)(C)OC(=O)NC1CCN(CCCCCCCCCCCCNC(=O)c2cccnc2N)CC1 [Compound 101, tert-Butyl (1-(12-(2-aminonicotinamido)dodecyl)piperidin-4-yl) carbamate] | 100.00% | 100.00% | 100.00% | 100.00% |  |  | −0.15% | 100.00% |  |  |  |  |  |  | 
